{
  "source": "patent US20110280941A1",
  "about": "“COMPOSITIONS OF PROTON PUMP INHIBITORS AND INSULIN SECRETAGOGUES, AND METHODS OF THEIR USE TO TREAT DIABETES” (Mefford Scientific, LLC, priority 2008, published 2011)",
  "assay_type_in_all_cases": "in vivo, human",
  "key": {"[1]": {"tested_on": "Type II diabetic patients", "assay": "Plasma gastrin during 24 week omeprazole trial (Example 4)", "conditions": "serum levels gradually reduced over time (FIG. 7)", "quoted_text": "Statistical comparisons and analysis were performed with a commercial program, Analyse-it, version 2.20. Design: All subjects continued on their respective oral antidiabetic medications throughout the study. Baseline data was obtained in a fasting state after an overnight fast. Subjects were then administered 75 g of glucose and blood samples obtained at 1 and 2 hours. Following collection of baseline data, subjects were administered Omeprazole Delayed-Release Capsules USP, (Apotex Inc., Toronto, Canada [MUT] 179), 40 mg orally twice daily and blood samples again obtained after 8, and 16 weeks. Medications were not taken on the mornings of testing. Following the 16 week sample collection, subjects were increased to 80 mg Omeprazole twice daily and blood samples again obtained at 24 weeks. Measurements: Helicobacter Pylori IgG was obtained on each subject as a baseline as were Hemoglobin A1c and fasting Gastrin. Each 2 hour glucose tolerance test provided fasting glucose, insulin and c-peptide as well as 1 hour and 2 hour glucose and stimulated insulin and c-peptide. All measurements were obtained through a commercial laboratory using standardized analytical methods, Quest Diagnostics Laboratory, 5850 Rogerdale Road, Houston, Tex."}, "[2]": {"tested_on": "Type II diabetic patients", "assay": "% Beta Cell area calculated from the 2 hour glucose tolerance value (method of Meier et al) (Example 4)", "conditions": "seven Type II diabetics; PPI administration", "description": "(§1) Design: All subjects continued on their respective oral antidiabetic medications throughout the study. Baseline data was obtained in a fasting state after an overnight fast. Subjects were then administered 75 g of glucose and blood samples obtained at 1 and 2 hours. Following collection of baseline data, subjects were administered Omeprazole Delayed-Release Capsules USP, (Apotex Inc., Toronto, Canada M9L 179), 40 mg orally twice daily and blood samples again obtained after 8, and 16 weeks. Medications were not taken on the mornings of testing. Following the 16 week sample collection, subjects were increased to 80 mg Omeprazole twice daily and blood samples again obtained at 24 weeks.\nTable 2 summarizes the effects of PPI administration on plasma Gastrin, Hemoglobin A1c and % Beta Cell area (calculated using the 2 hour glucose tolerance value by the method of Meier et al, Diabetes, vol 58, 1595-1603, 2009). […] Hemoglobin A1c, a measure of average blood glucose, was reduced by approximately 0.9% in this cohort, consistent with improved diabetes control (FIG. 6). Finally, the calculated Beta cell mass increased across the treatment period by approximately 25%."}, "[3]": {"tested_on": "Type II diabetic patients", "assay": "Hemoglobin A1c during 24 week omeprazole trial (Example 4)", "description": "(§2) Seven Type II diabetic patients were administered omeprazole for 24 weeks and data was obtained from fasting and following a 2 hour glucose tolerance test at 8 week intervals and compared to baseline values. Statistical comparisons and analysis were performed with a commercial program, Analyse-it, version 2.20.\n(§3) Subjects: Five males, 2 females, age range 42-68 years, mean age 54+10 years. BMI's ranged from 31 to 49, mean 38+6. All subjects had co-morbid hypertension, four had co-morbid dyslipidemia and two had co-morbid hypothyroidism. All were stable on oral diabetes medications with 7/7 on metformin, 6/7 on pioglitazone (Actos), 4/7 on a DPP-4 inhibitor, sitagliptan (Januvia) and 4/7 on a Sulfonylurea. All subjects received a physical exam, review of systems and a baseline EKG prior to initiating the PPI trial. Subjects were then seen and evaluated at monthly intervals interviewed for adverse events and monitored for medication compliance and maintenance of daily blood glucose logs.\nDesign: All subjects continued on their respective oral antidiabetic medications throughout the study. Baseline data was obtained in a fasting state after an overnight fast. Subjects were then administered 75 g of glucose and blood samples obtained at 1 and 2 hours. […]"}, "[4]": {"tested_on": "Type II diabetic patients", "assay": "2 hour glucose tolerance test during 24 week omeprazole trial (Example 4)", "description": "as §2, §3, §1\nMeasurements: Helicobacter Pylori IgG was obtained on each subject as a baseline as were Hemoglobin A1c and fasting Gastrin. Each 2 hour glucose tolerance test provided fasting glucose, insulin and c-peptide as well as 1 hour and 2 hour glucose and stimulated insulin and c-peptide. All measurements were obtained through a commercial laboratory using standardized analytical methods, Quest Diagnostics Laboratory, 5850 Rogerdale Road, Houston, Tex. 77072."}, "[5]": {"conditions": "after PPI administration (FIG. 4)"}},
  "data": [
    {"smiles": "COc1ccc2[nH]c([S+]([O-])Cc3ncc(C)c(OC)c3C)nc2c1", "note": "(stereo not drawn) [Omeprazole, 5-methoxy-2-[(4-methoxy-3,5-dimethyl-2-pyridinyl)methyl]sulfinyl-1H-benzimidazole]", "values": [
      {"measurement": "plasma gastrin, change by long term PPI administration", "setting": "[1]", "value": "markedly elevated"},
      {"measurement": "calculated Beta cell mass increase across the treatment period", "setting": "[2]", "value": "approximately 25%"},
      {"measurement": "percent hemoglobin A1c, change for all patients", "setting": "[3]; FIG. 1, statistically significant", "value": "decrease"},
      {"measurement": "Hemoglobin A1c reduction in this cohort", "setting": "[3]; seven Type II diabetics, PPI administration up to 24 weeks (FIG. 6)", "value": "approximately 0.9%"},
      {"measurement": "maximum glucose excursion at both 1 and 2 hours, change", "setting": "[4]; 8 and 16 weeks, statistically significant reductions at 16 weeks (FIG. 3)", "value": "reduced"},
      {"measurement": "Stimulated insulin secretion at both 1 and 2 hours, change", "setting": "[4]; [5]", "value": "increased"},
      {"measurement": "fasting insulin levels, change", "setting": "[4]; [5]", "value": "unchanged"},
      {"measurement": "1 and 2 hour c-peptide secretion, change", "setting": "[4]; after PPI administration (FIG. 5)", "value": "increased"},
      {"measurement": "Fasting blood glucose, change", "setting": "[4]; at both 8 and 16 weeks (FIG. 3)", "value": "reduced"}
    ]}
  ]
}
